We go through six compounds from patent US20250340543A1, “GPR84 ANTAGONISTS AND USES THEREOF” (Liminal BioSciences Limited, priority 2021, published 2025).

The target in assay [1] is T1, GPR84 (Homo sapiens (Human), UniProt Q9NQS5). The experiment in a line: Gai biosensor BRET assay (GPR84-mediated activation of Gai, antagonist mode against agonist ZQ-16). The class given is cell-based. Conditions: for IC50: HEK293 cells, 200 nmol/L GPR84 agonist ZQ-16, read-out: hGPR84 IC50; for inhibition at 10 µM: compound tested at 10 μM (concentration code D). In outline: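 Transiently transfected HEK293 cells expressing GPR84, Gαi2-Rluc8, GFP10-Gγ2 and Gβ1, in Tyrode's buffer pH 7.5. Compounds pre-incubated 5 min at 37° C, then 200 nmol/L ZQ-16 for 5 min at room temperature; BRET² with coelenterazine 400A, ligand-promoted net BRET after background and vehicle subtraction.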
Target sequence in this assay (Q9NQS5 whole entry): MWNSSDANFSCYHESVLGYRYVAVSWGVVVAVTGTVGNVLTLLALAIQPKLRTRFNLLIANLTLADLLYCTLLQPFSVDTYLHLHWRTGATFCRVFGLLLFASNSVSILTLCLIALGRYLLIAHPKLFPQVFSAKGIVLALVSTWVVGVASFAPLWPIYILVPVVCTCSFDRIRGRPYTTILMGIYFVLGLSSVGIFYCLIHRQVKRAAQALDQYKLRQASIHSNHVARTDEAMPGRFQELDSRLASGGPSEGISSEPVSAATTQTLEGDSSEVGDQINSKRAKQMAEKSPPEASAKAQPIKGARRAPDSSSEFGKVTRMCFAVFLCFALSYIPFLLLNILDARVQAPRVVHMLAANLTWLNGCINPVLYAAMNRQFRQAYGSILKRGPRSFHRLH
Background: In BRET a luciferase serves as donor, and the signal depends on an acceptor being close.

Another assay deals with neutrophils. As to the kind of experiment: Neutrophil migration assay (embelin as chemotactic agent, transwell, ATPlite readout). It counts as cell-based. Conditions: for Human Neutrophil migration inhibition - fold potency to Control Compound: IC50 normalized to GPR84 antagonist Control Compound; for IC50: Neutrophil, human neutrophils, embelin as chemotactic agent, read-out: Human Neutrophil migration inhibition IC50. The procedure: Neutrophil migration assay. After isolation, neutrophils were resuspended in chemotaxis buffer (DMEM supplemented with 10 mM HEPES) at a concentration of 8.9×10^6 cells/ml. In a 96-well plate, 20 μl of compound solution in chemotaxis buffer is added to 180 μl of cell suspension. After incubation at 37° C. for 30 minutes, 75 μL of cell suspension is transferred in the upper chamber of a 5 μm pore size Corning HTS transwell. 235 μL of chemotaxis buffer containing the chemotactic agent (embelin) is added to the lower chamber of the transwell. After a 60-minute incubation time at 37° C. in 5% CO2, the upper chamber of the transwell is removed and the plate is centrifuged at 1500 rpm for 6 minutes. Supernatant is removed and cells resuspended in 100 ul of PBS. ATP content was assessed using ATPlite Luminescence Assay System® according to manufacturer instructions (Perkin Elmer, Buckinghamshire, UK). Briefly, 50 μL of ATPlite buffer and 50 μL of lysis solution is added to the lower chamber of the Transwells. After incubation at room temperature, in the dark with constant agitation for 5 minutes, 150 μL of cell lysate is transferred in a 96 wells white plate and incubated for 10 minutes in the dark. Luminescence is read on a TECAN plate reader, Infinite M1000 (Tecan, Morrisville, NC).
The compound numbers correspond to the compound numbers in Table 1. […] Normalization of the results takes the donor's variation into account.
In general terms: In ATP-based viability assays light output follows the ATP content of the culture.

The test system of assay [2] is mouse dextran sodium sulfate-induced chronic inflammatory bowel disease model. The settings on record: once-daily doses of 3 and 10 mg/kg, mouse DSS-induced chronic IBD model; cited from earlier work.
In assay [3] the target is T1, GPR84. The settings on record: literature (Wang et al. 2006); read-out: potency of GPR84 activation; cited from earlier work.
Target sequence in this assay (Q9NQS5 whole entry, species assumed): as the sequence (Q9NQS5 whole entry) above

The structures appear in SMILES notation.

Turning to `Cc1cc(OCC2COCCO2)cc(=O)n1Cc1cccc(C#CC2CC2)c1` (stereo not shown) [Compound I-2], the IC50 on GPR84 [1] is below 5 µM. Further, at GPR84 [1] (compound tested at 25 μM (concentration code G)), the inhibition at 25 µM was above 75%. Moreover, in the assay with neutrophils, the “Human Neutrophil migration inhibition - fold potency to Control Compound” value is reported as “C (IC50≤0.5-fold relative to Control Compound)” and the IC50 was above 3 µM.
At GPR84 [1] (compound tested at 2 μM (concentration code A)), `Cc1cc(OC[C@H]2COc3ccccc3O2)cc(=O)n1Cc1cccc(C#CC2CC2)c1` [Compound I-30] showed an inhibition at 2 µM of 25 to 50%. Besides, in the assay with neutrophils, the “Human Neutrophil migration inhibition - fold potency to Control Compound” value is “C (IC50≤0.5-fold relative to Control Compound)” and the IC50 was 1 to 3 µM.
With `Cc1cc(OCC2CCCOC2)cc(=O)n1[C@H](C)c1ccc(C#CC2CC2)cc1` (stereo partly shown) [Compound I-222], the inhibition at 10 µM on GPR84 [1] is above 75%. The IC50 in the assay with neutrophils was in the range of 1 to 3 µM.
As to `Cc1cc(OCc2ncccn2)cc(=O)n1[C@H](C)c1ccc(C#CC2CC2)cc1` [Compound I-223], at GPR84 [1], the IC50 was below 5 µM and the inhibition at 10 µM is above 75%. In the assay with neutrophils, the “Human Neutrophil migration inhibition - fold potency to Control Compound” value was “B (IC50 of >0.5-≤1.0-fold relative to Control Compound)” and the IC50 is at most 0.3 µM.
For the compound `O=c1nc(OC[C@@H]2COCCO2)cc2n1CCc1cc(C#CC3CC3)ccc1-2` [GLPG1205], in assay [2], the “disease activity index score” value was “reduced” and the neutrophil infiltration result was “reduced”.
Regarding `CCCCCCCCCCCC(=O)O` [lauric acid], the EC50 on GPR84 [3] was 11 µM.

For orientation: inhibition means the relative decrease from the control value, in per cent.
